# Results from patent publication US9073940B2, “Tricyclic pyrazol amine derivatives” (MERCK SERONO SA, priority 2009, dated 2015).
# System: 4 PI3K isoforms (Human recombinant GST-PI3K)
# Test: PI3K scintillation proximity assay, best IC50 obtained with the four isoforms (alpha, beta, delta, gamma)
# Type: biochemical
# Settings: best IC50 obtained with the four isoforms of PI3K; read-out: Best potency measured on the 4 PI3K isoforms
smiles,measurement,value
"COc1ccc2c(c1)S(=O)(=O)Cc1c(C(=O)N3CCOCC3)nn([C@H]3CCCN(CCN4CC(F)(F)C4)C3)c1-2 (single isomer, unassigned) [Example 382, 1-{1-[2-(3,3-difluoroazetidin-1-yl)ethyl]piperidin-3-yl}-7-methoxy-3-(morpholin-4-ylcarbonyl)-1,4-dihydrothiochromeno[4,3-c]pyrazole 5,5-dioxide]",IC50,15 nM
"COc1ccc2c(c1)S(=O)(=O)Cc1c(C(=O)N3CCOCC3)nn([C@H]3CCCN(CCN4CCOCC4)C3)c1-2 (single isomer, unassigned) [Example 383, 7-methoxy-3-(morpholin-4-ylcarbonyl)-1-[1-(2-morpholin-4-ylethyl)piperidin-3-yl]-1,4-dihydrothiochromeno[4,3-c]pyrazole 5,5-dioxide]",IC50,24 nM
"COc1ccc2c(c1)S(=O)(=O)Cc1c(C(=O)N3CCOCC3)nn([C@H]3CCCN(CCN4CCC(F)CC4)C3)c1-2 (single isomer, unassigned) [Example 384, 1-{1-[2-(4-fluoropiperidin-1-yl)ethyl]piperidin-3-yl}-7-methoxy-3-(morpholin-4-ylcarbonyl)-1,4-dihydrothiochromeno[4,3-c]pyrazole 5,5-dioxide]",IC50,19 nM
"CC1CN(CCN2CCC[C@H](n3nc(C(=O)N4CCOCC4)c4c3-c3ccccc3S(=O)(=O)C4)C2)CCO1 (single isomer, unassigned) [Example 385, 1-{1-[2-(2-methylmorpholin-4-yl)ethyl]piperidin-3-yl}-3-(morpholin-4-ylcarbonyl)-1,4-dihydrothiochromeno[4,3-c]pyrazole 5,5-dioxide]",IC50,29 nM
"O=C(c1nn([C@H]2CCCN(CCN3CCOCC3)C2)c2c1CS(=O)(=O)c1c(Cl)cccc1-2)N1CCOCC1 (single isomer, unassigned) [Example 386, 6-chloro-3-(morpholin-4-ylcarbonyl)-1-[1-(2-morpholin-4-ylethyl)piperidin-3-yl]-1,4-dihydrothiochromeno[4,3-c]pyrazole 5,5-dioxide]",IC50,30 nM
"COCCN1CCC[C@H](n2nc(C(=O)N3CCOCC3)c3c2-c2ccc(OC)cc2S(=O)(=O)C3)C1 (single isomer, unassigned) [Example 394, 7-methoxy-1-[1-(2-methoxyethyl)piperidin-3-yl]-3-(morpholin-4-ylcarbonyl)-1,4-dihydrothiochromeno[4,3-c]pyrazole 5,5-dioxide]",IC50,93 nM
"O=C(c1nn([C@H]2CCN(C3CCOCC3)C2)c2c1CS(=O)(=O)c1ccccc1-2)N1CCOCC1 (single isomer, unassigned) [Example 402]",IC50,1440 nM
"O=C(c1nn([C@@H]2CCN(CCN3CCC(F)CC3)C2)c2c1CS(=O)(=O)c1ccccc1-2)N1CCOCC1 (single isomer, unassigned) [Example 409, 1-{1-[2-(4-fluoropiperidin-1-yl)ethyl]pyrrolidin-3-yl}-3-(morpholin-4-ylcarbonyl)-1,4-dihydrothiochromeno[4,3-c]pyrazole 5,5-dioxide]",IC50,55 nM
"O=C(c1nn([C@H]2CCN(CCN3CCC(F)CC3)C2)c2c1CS(=O)(=O)c1ccccc1-2)N1CCOCC1 (single isomer, unassigned) [Example 410, 1-{1-[2-(4-fluoropiperidin-1-yl)ethyl]pyrrolidin-3-yl}-3-(morpholin-4-ylcarbonyl)-1,4-dihydrothiochromeno[4,3-c]pyrazole 5,5-dioxide]",IC50,3690 nM
"O=C(c1nn([C@@H]2CCCN(CCn3ccnc3)C2)c2c1CS(=O)(=O)c1ccccc1-2)N1CCOCC1 (single isomer, unassigned) [Example 411, 1-{1-[2-(1H-imidazol-1-yl)ethyl]piperidin-3-yl}-3-(morpholin-4-ylcarbonyl)-1,4-dihydrothiochromeno[4,3-c]pyrazole 5,5-dioxide]",IC50,444 nM
"O=C(c1nn([C@H]2CCCN(CCn3ccnc3)C2)c2c1CS(=O)(=O)c1ccccc1-2)N1CCOCC1 (single isomer, unassigned) [Example 412, 1-{1-[2-(1H-imidazol-1-yl)ethyl]piperidin-3-yl}-3-(morpholin-4-ylcarbonyl)-1,4-dihydrothiochromeno[4,3-c]pyrazole 5,5-dioxide]",IC50,5600 nM
"O=C(c1nn([C@H]2CCCN(CCC3CCOCC3)C2)c2c1CS(=O)(=O)c1ncccc1-2)N1CCOCC1 (single isomer, unassigned) [Example 422, 3-(morpholin-4-ylcarbonyl)-1-{1-[2-(tetrahydro-2H-pyran-4-yl)ethyl]piperidin-3-yl}-1,4-dihydropyrazolo[3′,4′:4,5]thiopyrano[2,3-b]pyridine 5,5-dioxide]",IC50,16 nM
"O=C(c1nn([C@@H]2CCCN(CCC3CCOCC3)C2)c2c1CS(=O)(=O)c1ncccc1-2)N1CCOCC1 (single isomer, unassigned) [Example 423, 3-(morpholin-4-ylcarbonyl)-1-{1-[2-(tetrahydro-2H-pyran-4-yl)ethyl]piperidin-3-yl}-1,4-dihydropyrazolo[3′,4′:4,5]thiopyrano[2,3-b]pyridine 5,5-dioxide]",IC50,99 nM
"COc1cccc2c1S(=O)(=O)Cc1c(C(=O)N3CCOCC3)nn([C@H]3CCCN(CCN4CCOCC4)C3)c1-2 (single isomer, unassigned) [Example 424, 6-methoxy-3-(morpholin-4-ylcarbonyl)-1-[1-(2-morpholin-4-ylethyl)piperidin-3-yl]-1,4-dihydrothiochromeno[4,3-c]pyrazole 5,5-dioxide]",IC50,59 nM
"COCCN1CCC[C@H](n2nc(C(=O)N3CCOCC3)c3c2-c2cccc(OC)c2S(=O)(=O)C3)C1 (single isomer, unassigned) [Example 428, 6-methoxy-1-[1-(2-methoxyethyl)piperidin-3-yl]-3-(morpholin-4-ylcarbonyl)-1,4-dihydrothiochromeno[4,3-c]pyrazole 5,5-dioxide]",IC50,128 nM
"COC(=O)CCN1CCC[C@H](n2nc(C(=O)N3CCOCC3)c3c2-c2ccccc2S(=O)(=O)C3)C1 (single isomer, unassigned) [Example 433, methyl 3-{3-[3-(morpholin-4-ylcarbonyl)-5,5-dioxidothiochromeno[4,3-c]pyrazol-1(4H)-yl]piperidin-1-yl}propanoate]",IC50,48 nM
"COCCN1CCC[C@H](n2nc(C(=O)N3CCOCC3)c3c2-c2cccc(F)c2S(=O)(=O)C3)C1 (single isomer, unassigned) [Example 434, 6-Fluoro-1-[1-(2-methoxyethyl)piperidin-3-yl]-3-(morpholin-4-ylcarbonyl)-1,4-dihydrothiochromeno[4,3-c]pyrazole 5,5-dioxide]",IC50,31 nM
"O=C1CCCN1CCN1CCC[C@H](n2nc(C(=O)N3CCOCC3)c3c2-c2ccccc2S(=O)(=O)C3)C1 (single isomer, unassigned) [Example 440, 1-(2-{3-[3-(morpholin-4-ylcarbonyl)-5,5-dioxidothiochromeno[4,3-c]pyrazol-1(4H)-yl]piperidin-1-yl}ethyl)pyrrolidin-2-one]",IC50,80 nM
"COc1cccc2c1S(=O)(=O)Cc1c(C(=O)N3CCOCC3)nn([C@H]3CCCN(CCN4CC(F)(F)C4)C3)c1-2 (single isomer, unassigned) [Example 442, 1-{1-[2-(3,3-difluoroazetidin-1-yl)ethyl]piperidin-3-yl}-6-methoxy-3-(morpholin-4-ylcarbonyl)-1,4-dihydrothiochromeno[4,3-c]pyrazole 5,5-dioxide]",IC50,40 nM
"COc1cccc2c1S(=O)(=O)Cc1c(C(=O)N3CCOCC3)nn([C@H]3CCCN(CCN4CC(F)C4)C3)c1-2 (single isomer, unassigned) [Example 443, 1-{1-[2-(3-fluoroazetidin-1-yl)ethyl]piperidin-3-yl}-6-methoxy-3-(morpholin-4-ylcarbonyl)-1,4-dihydrothiochromeno[4,3-c]pyrazole 5,5-dioxide]",IC50,62 nM
"NCCN1CCC[C@H](n2nc(C(=O)N3CCOCC3)c3c2-c2ccccc2S(=O)(=O)C3)C1 (single isomer, unassigned) [Example 452, 2-{3-[3-(morpholin-4-ylcarbonyl)-5,5-dioxidothiochromeno[4,3-c]pyrazol-1(4H)-yl]piperidin-1-yl}ethanamine]",IC50,73 nM
"COCCN1CCC[C@H](n2nc(C(=O)N3CCOCC3)c3c2-c2cccc(C)c2S(=O)(=O)C3)C1 (single isomer, unassigned) [Example 467, 1-[1-(2-methoxyethyl)piperidin-3-yl]-6-methyl-3-(morpholin-4-ylcarbonyl)-1,4-dihydrothiochromeno[4,3-c]pyrazole 5,5-dioxide]",IC50,96 nM
"O=C(c1nn(C2CCCN(c3cccnc3)C2)c2c1CS(=O)(=O)c1ccccc1-2)N1CCOCC1 (single isomer, unassigned) [Example 484, 3-(morpholin-4-ylcarbonyl)-1-[1-pyridin-3-ylpiperidin-3-yl]-1,4-dihydrothiochromeno[4,3-c]pyrazole 5,5-dioxide]",IC50,48 nM
"O=C(c1nn([C@H]2CCCN(CC3CCOCC3)C2)c2c1CS(=O)(=O)c1ccccc1-2)N1CCOCC1 (stereo in doubt) [Example 361, 3-(morpholin-4-ylcarbonyl)-1-[1-(tetrahydro-2H-pyran-4-ylmethyl)piperidin-3-yl]-1,4-dihydrothiochromeno[4,3-c]pyrazole 5,5-dioxide]",IC50,25 nM
"O=C(c1nn([C@H]2CCCN(C3CCOCC3)C2)c2c1CS(=O)(=O)c1ccccc1-2)N1CCOCC1 (stereo in doubt) [Example 374, 3-(morpholin-4-ylcarbonyl)-1-[1-(tetrahydro-2H-pyran-4-yl)piperidin-3-yl]-1,4-dihydrothiochromeno[4,3-c]pyrazole 5,5-dioxide]",IC50,80 nM
"COc1ccc2c(c1)S(=O)(=O)Cc1c(C(=O)N3CCOCC3)nn([C@H]3CCCN(C4CCCOC4)C3)c1-2 (stereo in doubt) [Example 389, 7-methoxy-3-(morpholin-4-ylcarbonyl)-1-[1-(tetrahydro-2H-pyran-3-yl)piperidin-3-yl]-1,4-dihydrothiochromeno[4,3-c]pyrazole 5,5-dioxide]",IC50,24 nM
"COc1ccc2c(c1)S(=O)(=O)Cc1c(C(=O)N3CCOCC3)nn([C@H]3CCCN(CC4CCOC4)C3)c1-2 (stereo in doubt) [Example 395, 7-methoxy-3-(morpholin-4-ylcarbonyl)-1-[1-(tetrahydrofuran-3-ylmethyl)piperidin-3-yl]-1,4-dihydrothiochromeno[4,3-c]pyrazole 5,5-dioxide]",IC50,44 nM
